Assay results as given in patent US6831075B2, “Heterocyclic substituted pyrazolones” (Cephalon, Inc., priority 1999, dated 2004).

How the values were obtained:
Format in all cases: biochemical
[1] = biological target: T1, recombinant human baculovirus-expressed VEGFR1 cytoplasmic domain (Homo sapiens, UniProt P17948); assay: VEGFR1 kinase inhibition assay (ELISA-based, time-resolved fluorescence); settings: 1 uM compound, 30 μM ATP; for inhibition at 1 µM: read-out: VEGFR-1 kinase % inhibition @ 1 uM
T1 construct: recombinant human baculovirus-expressed VEGFR1 cytoplasmic domain; host or cells: baculovirus expression system
T1 sequence (P17948 781-1338 limits assumed): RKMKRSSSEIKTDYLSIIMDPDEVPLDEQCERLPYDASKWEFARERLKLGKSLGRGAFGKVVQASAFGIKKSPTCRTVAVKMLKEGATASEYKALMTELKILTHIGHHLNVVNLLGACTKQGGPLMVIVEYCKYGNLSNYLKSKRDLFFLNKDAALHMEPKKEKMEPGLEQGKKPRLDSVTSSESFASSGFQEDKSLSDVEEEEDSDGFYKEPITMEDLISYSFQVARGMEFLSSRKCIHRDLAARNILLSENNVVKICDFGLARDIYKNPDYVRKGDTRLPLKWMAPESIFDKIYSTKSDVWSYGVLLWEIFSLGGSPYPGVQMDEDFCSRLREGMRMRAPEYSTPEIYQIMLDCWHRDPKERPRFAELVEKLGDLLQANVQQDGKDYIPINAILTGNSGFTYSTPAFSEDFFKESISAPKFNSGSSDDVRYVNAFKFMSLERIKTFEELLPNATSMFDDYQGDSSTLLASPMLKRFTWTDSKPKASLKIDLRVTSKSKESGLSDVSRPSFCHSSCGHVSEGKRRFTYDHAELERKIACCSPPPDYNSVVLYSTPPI
Procedure: Inhibition of Vascular Endothelial Growth Factor Receptor-1 Kinase Activity
The VEGFR1 kinase activity assay utilizes an ELISA-based format in a 96-well FluoroNUNC Maxisorp plate with a time-resolved fluorescence readout. The plate was coated with 100 μl/well of substrate solution (recombinant human PLC-γ/GST) at a concentration of 40 μg/ml in Tris buffered saline (TBS). The VEGFR1 activity was assayed in 100-μl assay micture containing 50 mM HEPES (pH 7.4), 30 μM ATP, 10 mM MnCl2, 0.1% BSA, 2% DMSO, and 300 ng/ml prephosphorylated recombinant human baculovirus-expressed VEGFR1 cytoplasmic domain. Compounds were screened for inhibition of the VEGFR1 kinase activity at a concentration of 1 μM. The kinase reaction was allowed to proceed at 37° C. for 15 minutes. The detection antibody, europium-labeled anti-phosphotyrosine antibody (Wallac #CR04-100), was added at 1:5000 dilution in block buffer (3% BSA in TBST). After a 1-hour incubation at 37° C., 100 μl of enhancement solution (Wallac #1244-105) was added and the plate was gently agitated. After 5 min, the fluorescence of the resulting solution was measured using the BMG Fluostar (Model # 403).

[2] = biological target: T2, recombinant human baculoviral VEGFR2 cyctoplasmic domain (Homo sapiens, UniProt P35968); assay: VEGFR2 kinase inhibition assay (ELISA-based, time-resolved fluorescence); settings: 1 uM compound, 30 μM ATP; for inhibition at 1 µM: read-out: VEGFR-2 kinase % inhibition @ 1 uM
T2 construct: recombinant human baculoviral VEGFR2 cyctoplasmic domain; host or cells: baculovirus expression system
Procedure: Inhibition of Vascular Endothelial Growth Factor Receptor-2 Kinase Activity
Assay were performed as described for trkA kinase below. The 96-well microtiter plate (FluoroNUNC Maxisorp) was coated with 40 μg/ml recombinant human phospholipase C-γ1/glutathione S-transferase fusion protein. Inhibition studies were performed in 100 μl assay mixtures containing 50 mM HEPES, pH 7.4, 30 μM ATP, 10 mM MnCl2, 0.1% BSA, 2% DMSO, and 1 μM of test compound. The reaction was initiated by adding prephosphorylated recombinant human baculoviral VEGFR2 cyctoplasmic domain. The reaction was allowed to proceed for 15 minutes at 37° C. The detection antibody, eurpium-labeled anti-phosphotyrosine antibody (Wallac #CR04-100), was added at 1:5000 dilution in block buffer (3% BSA in TBST).

baculoviral GST-MLK2KDLZ = biological target: T3, baculoviral GST-MLK2KDLZ (Homo sapiens, UniProt Q02779); assay: Mixed Lineage Kinase-2 inhibition assay (Millipore Multiscreen plate, 32P); settings: 1 uM compound, 100 μM ATP; for inhibition at 1 µM: read-out: MLK-2 Kinase % inhibition @ 1 uM
T3 construct: 3 μg/ml of baculoviral GST-MLK2KDLZ; GST (N); host or cells: baculovirus expression system
Procedure: Inhibition of Mixed Lineage Kinase-2 Activity
Assays were performed using the Millipore Multiscreen plate format as described for MLK1. Each 50-μl assay mixture contained 20 mM Hepes, pH 7, 1 mM EGTA, 10 mM MgCl2, 1 mM DTT, 25 mM β-glycerophosphate, 100 μM ATP, 0.25 μCi [γ-^32P]ATP, 0.1% BSA, 500 μg/ml myelin basic protein (UBI #13-104), 2% DMSO, various concentrations of test compound, and 3 μg/ml of baculoviral GST-MLK2KDLZ. Samples were incubated for 15 min. at 37° C. The reaction was stopped by adding ice cold 50% TCA and the proteins were allowed to precipitate for 30 min at 4° C. The plates were then washed with ice cold 25% TCA Supermix scintillation cocktail was added, and the plates were allowed to equilibrate for 1-2 hours prior to counting.

[3] = biological target: T4, recombinant human baculovirus-expressed FGFR1 cytoplasmic domain (Homo sapiens, UniProt P11362); assay: FGFR1 kinase inhibition assay (ELISA-based, time-resolved fluorescence); settings: 1 uM compound; 20 μM ATP
T4 construct: recombinant human baculovirus-expressed FGFR1 cytoplasmic domain; host or cells: baculovirus expression system
Procedure: Inhibition of Fibroblast Growth Factor Receptor-1 (FGFR1) Kinase Activity
The FGFR1 kinase activity was measured using an ELISA-based format in a 96-well FluoroNUNC Maxisorp plate with a time-resolved fluorescence readout as described for trkA kinase. The plate was coated with 100 μl/well of substrate solution (recombinant human PLC-γ/GST) at a concentration of 10 μg/ml in Tris buffered saline (TBS). The FDGFR1 activity was assayed in 100-μl assay micture containing 50 mM HEPES (pH 7.4), 20 μM ATP, 10 mM MnCl2, 0.1% BSA, 2% DMSO, and 15 ng/ml recombinant human baculovirus-expressed FGFR1 cytoplasmic domain (prephosphorylated prior to use). Compounds were screened for inhibition of the FGFR1 kinase activity at a conentration of 1 μM. The kinase reaction was allowed to proceed at 37° C. for 15 minutes. The detection antibody, europium-labeled anti-phosphotyrosine antibody (Wallace #CR04-100), was added at 1:5000 dilution in block buffer (3% BSA in TBST). After a 1-hour incubation at 37° C., 100 μl of enhancement solution (Wallac #1244-105) and the plate was gently agitated. After 5 min, the fluorescence of the resulting solutions measured using the BMG Fluostar (Model # 403).

T2 sequence (P35968 786-1356 limits assumed): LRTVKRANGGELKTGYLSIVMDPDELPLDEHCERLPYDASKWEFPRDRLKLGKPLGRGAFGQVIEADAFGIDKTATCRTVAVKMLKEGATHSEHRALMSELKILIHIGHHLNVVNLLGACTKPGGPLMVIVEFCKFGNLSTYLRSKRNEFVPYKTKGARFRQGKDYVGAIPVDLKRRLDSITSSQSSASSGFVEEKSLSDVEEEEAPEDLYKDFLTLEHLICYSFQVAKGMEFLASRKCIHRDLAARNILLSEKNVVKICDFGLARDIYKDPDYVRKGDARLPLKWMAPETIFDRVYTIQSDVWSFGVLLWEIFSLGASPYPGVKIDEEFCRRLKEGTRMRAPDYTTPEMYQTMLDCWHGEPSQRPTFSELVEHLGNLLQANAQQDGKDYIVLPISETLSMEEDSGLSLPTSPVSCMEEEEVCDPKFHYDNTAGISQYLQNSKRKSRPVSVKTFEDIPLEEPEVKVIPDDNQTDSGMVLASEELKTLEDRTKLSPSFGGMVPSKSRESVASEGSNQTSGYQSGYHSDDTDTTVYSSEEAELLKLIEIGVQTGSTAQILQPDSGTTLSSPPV
T3 sequence (Q02779 98-440 limits assumed): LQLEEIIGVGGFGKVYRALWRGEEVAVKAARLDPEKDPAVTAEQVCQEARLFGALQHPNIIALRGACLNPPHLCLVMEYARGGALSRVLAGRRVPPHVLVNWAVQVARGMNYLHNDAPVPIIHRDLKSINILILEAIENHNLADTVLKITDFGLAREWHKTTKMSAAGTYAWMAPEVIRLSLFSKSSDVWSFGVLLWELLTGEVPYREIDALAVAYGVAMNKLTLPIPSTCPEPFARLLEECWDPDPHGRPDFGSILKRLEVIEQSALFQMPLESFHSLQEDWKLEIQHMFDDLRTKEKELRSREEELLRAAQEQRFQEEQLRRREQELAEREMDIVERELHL
T4 sequence (P11362 398-822 limits assumed): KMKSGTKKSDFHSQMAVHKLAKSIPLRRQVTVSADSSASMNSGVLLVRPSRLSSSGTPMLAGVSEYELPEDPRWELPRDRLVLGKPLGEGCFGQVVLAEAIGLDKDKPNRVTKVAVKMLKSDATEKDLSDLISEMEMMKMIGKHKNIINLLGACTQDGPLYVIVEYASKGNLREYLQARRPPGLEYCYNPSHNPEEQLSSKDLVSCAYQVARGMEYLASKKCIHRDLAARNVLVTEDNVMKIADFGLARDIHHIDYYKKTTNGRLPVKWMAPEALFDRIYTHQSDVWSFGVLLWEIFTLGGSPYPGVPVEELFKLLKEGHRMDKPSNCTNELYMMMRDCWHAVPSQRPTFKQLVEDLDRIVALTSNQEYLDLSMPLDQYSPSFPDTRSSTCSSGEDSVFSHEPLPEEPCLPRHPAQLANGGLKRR

Row | SMILES | VEGFR-1 kinase % inhibition @ 1 uM [1] [%] | VEGFR-2 kinase % inhibition @ 1 uM [2] [%] | MLK-2 Kinase % inhibition @ 1 uM (baculoviral GST-MLK2KDLZ) [%] | FGFR1 % inhibition @ 1 uM [3] [%] | inhibition at 1 µM [1] [%] | inhibition at 1 µM [2] [%] | inhibition at 1 µM (baculoviral GST-MLK2KDLZ) [%] | inhibition at 1 µM [3] [%]
1 | O=C1NN=C(c2ccoc2)C1=Cc1c[nH]c2cccc(OCc3ccccc3)c12 [Compound 18] | 9 | 12 | −2 | 22 | – | – | – | –
2 | O=C1NN=C(c2ccoc2)C1=Cc1c[nH]c2ccc(F)cc12 [Compound 19] | 30 | 44 | −5 | 23 | – | – | – | –
3 | Cn1cc(C=C2C(=O)NN=C2c2ccoc2)c2ccccc21 [Compound 20] | 45 | 67 | −3 | 27 | – | – | – | –
4 | O=C1NN=C(c2ccoc2)C1=Cc1c[nH]c2ccc(OCc3ccccc3)cc12 [Compound 21] | 0 | 12 | −13 | 15 | – | – | – | –
5 | Cc1cccc2c(C=C3C(=O)NN=C3c3ccoc3)c[nH]c12 [Compound 22] | 23 | 41 | −13 | 22 | – | – | – | –
6 | Cc1cc(C)c(C=C2C(=O)NN=C2c2ccn(C)c2)[nH]1 [Compound 23] | 2 | 7 | −6 | 31 | – | – | – | –
7 | Cn1ccc(C2=NNC(=O)C2=Cc2c[nH]c3ccccc23)c1 [Compound 24] | 39 | 32 | 4 | 39 | – | – | – | –
8 | O=C1NN=C(c2nccs2)C1=Cc1c[nH]c2ccccc12 [Compound 25, 4-(indol-3-ylmethylene)-3-(1,3-thiazol-2-yl)-2-pyrazolin-5-one] | – | – | – | – | 66 | 64 | -4 | 52
9 | Cc1cc(C)c(C=C2C(=O)NN=C2c2c(C)coc2C)[nH]1 [Compound 27] | 11 | 40 | −4 | 36 | – | – | – | –
10 | Cc1cc(C)c(C=C2C(=O)NN=C2c2ccco2)[nH]1 [Compound 28, 4-[(3,5-dimethylpyrrol-2-yl)methylene]-3-(2-furyl)-2-pyrazolin-5-one] | – | – | – | – | 36 | 80 | 10 | 37
11 | O=C1NN=C(c2ccco2)C1=Cc1c[nH]c2ccccc12 [Compound 29, 3-(2-furyl)-4-(indol-3-ylmethylene)-2-pyrazolin-5-one] | – | – | – | – | 53 | 68 | 2 | 41
12 | Cc1cc(C)c(C=C2C(=O)NN=C2c2ccccn2)[nH]1 [Compound 30] | 41 | 68 | 1 | 27 | – | – | – | –
13 | Cn1ccc(C2=NNC(=O)C2=Cc2c[nH]c3cccc(OCc4ccccc4)c23)c1 [Compound 31] | 10 | 16 | 0 | 17 | – | – | – | –
